This data set can be described thus: RP, Waters Symmetry C18, 100 × 2.1 mm; A: water + 0.1% formic acid, pH 3; B: acetonitrile + 0.1% formic acid, pH 3; gradient (min/%B) 0/5 24/95 29/95 29.1/5. The settings on record: stereoisomer not certain.

`Oc1cc(O)c2c(c1)OC(c1ccc(O)c(O)c1)C(O)C2` (single isomer, unassigned; (-)) [(-)-Epicatechin]: the LC retention time is 7.82 min.

With `COc1cc(C=CC(=O)O)cc(OC)c1OC` [3,4,5-Trimethoxycinnamic_acid], the LC retention time came to 12.3 min.

Take `Cc1cc(=O)oc2cc(OC3OC(C(=O)O)C(O)C(O)C3O)ccc12` (stereo unspecified) [4-Methylumbelliferylglucuronide]: the LC retention time came to 8.77 min.

On to `Nc1ncnc2c1ncn2C1OC(CO)C(O)C1O` (stereo unspecified) [Adenosine], for which the LC retention time came out at 1.52 min.

Consider `O=c1cc(-c2ccc(O)c(-c3c(O)cc(O)c4c(=O)cc(-c5ccc(O)cc5)oc34)c2)oc2cc(O)cc(O)c12` [Amentoflavone], for which the LC retention time worked out at 14.2 min.

For the compound `CN1CCc2cccc3c2C1Cc1ccc(O)c(O)c1-3` (stereo unspecified) [Apomorphine], the LC retention time is 7.2 min.

Regarding `COc1ccc2cc3[n+](cc2c1OC)CCc1cc2c(cc1-3)OCO2` [Berberine], the LC retention time turned out to be 9.9 min.

For the compound `COc1c2ccoc2cc2oc(=O)ccc12` [Bergapten], the LC retention time came out at 14.5 min.

With `CN1CCc2cc3c(cc2C1C1OC(=O)c2c1ccc1c2OCO1)OCO3` (stereo unspecified) [Bicuculline], the LC retention time was determined as 8.51 min.

`COc1ccc(-c2coc3cc(O)cc(O)c3c2=O)cc1` [Biochanin_A]: the LC retention time amounted to 16.1 min.

For the compound `CN1Cc2c(ccc3c2OCO3)C2C(O)Cc3cc4c(cc3C21)OCO4` (stereo unspecified) [Chelidonine], the LC retention time was 9.5 min.

`C=CC1CN2CCC1CC2C(O)c1ccnc2ccccc12` (stereo unspecified) [Cinchonine]: the LC retention time came to 3.47 min.

Take `CCC1CN2CCc3cc(OC)c(OC)cc3C2CC1CC1NCCc2cc(OC)c(OC)cc21` (stereo unspecified) [Emetine]: the LC retention time is 7.62 min.

Turning to `CCC1OC(=O)C(C)C(OC2CC(C)(OC)C(O)C(C)O2)C(C)C(OC2OC(C)CC(N(C)C)C2O)C(C)(O)CC(C)C(=O)C(C)C(O)C1(C)O` (stereo unspecified) [Erythromycin], the LC retention time stood at 11.2 min.

Regarding `O=c1c(-c2ccc(O)cc2)coc2cc(O)cc(O)c12` [Genistein], the LC retention time worked out at 13.1 min.

With `Cc1nccc2c1[nH]c1ccccc12` [Harmane], the LC retention time came out at 7.81 min.

Take `CC(C)C(NC(=O)Cc1c[nH]c2ccccc12)C(=O)O` (stereo unspecified) [IAA-Val]: the LC retention time is 12.1 min.

With `O=C(O)c1c[nH]c2ccccc12` [Indole-3-carboxylic_acid], the LC retention time was determined as 10.5 min.

With `O=c1c(O)c(-c2ccc(O)cc2)oc2cc(O)cc(O)c12` [Kaempferol], the LC retention time turned out to be 13.3 min.

Consider `c1coc(CNc2ncnc3nc[nH]c23)c1` [Kinetin], for which the LC retention time stood at 6.57 min.

As for `COc1ccc(CC2c3cc(OC)c(OC)cc3CCN2C)cc1OC` (stereo unspecified) [Laudanosine], the LC retention time worked out at 8.39 min.

On to `CC1OC(OC2C(Oc3cc(O)c4c(c3)OC(c3ccc(O)cc3)CC4=O)OC(CO)C(O)C2O)C(O)C(O)C1O` (stereo unspecified) [Naringin], for which the LC retention time was found to be 10.5 min.

Consider `NC(=O)c1ccc[n+](C2OC(COP(=O)(O)OP(=O)(O)OCC3OC(n4cnc5c(N)ncnc54)C(O)C3O)C(O)C2O)c1` (stereo unspecified) [Nicotinamide_dinucleotide], for which the LC retention time was determined as 1.2 min.

In the case of `NC(Cc1ccccc1)C(=O)O` (stereo unspecified) [Phenylalanine], the LC retention time stood at 2.27 min.

`O=C(CCc1ccc(O)cc1)c1c(O)cc(O)cc1OC1OC(CO)C(O)C(O)C1O` (stereo unspecified) [Phlorizin]: the LC retention time is 11.1 min.

On to `O=c1c(O)c(-c2ccc(O)c(O)c2)oc2cc(O)cc(O)c12` [Quercetin], for which the LC retention time came out at 12.2 min.

On to `COC(=O)C1C2CC3c4[nH]c5cc(OC)ccc5c4CCN3CC2CC(OC(=O)c2cc(OC)c(OC)c(OC)c2)C1OC` (stereo unspecified) [Reserpine], for which the LC retention time was 12.6 min.

Consider `Oc1ccc(C=Cc2cc(O)cc(O)c2)cc1` [Resveratrol], for which the LC retention time was 11.5 min.

Consider `COC1C=COC2(C)Oc3c(C)c(O)c4c(O)c(c(C=NN5CCN(C)CC5)c(O)c4c3C2=O)NC(=O)C(C)=CC=CC(C)C(O)C(C)C(O)C(C)C(OC(C)=O)C1C` (stereo unspecified) [Rifampicin], for which the LC retention time was determined as 15.1 min.

`C=C(C)C1Cc2c(ccc3c2OC2COc4cc(OC)c(OC)cc4C2C3=O)O1` (stereo unspecified) [Rotenone]: the LC retention time was found to be 18 min.

For the compound `CC1OC(OCC2OC(Oc3c(-c4ccc(O)c(O)c4)oc4cc(O)cc(O)c4c3=O)C(O)C(O)C2O)C(O)C(O)C1O` (stereo unspecified) [Rutin], the LC retention time was determined as 9.72 min.

For the compound `COc1ccc2c(c1OC)C(=O)OC2C1c2c(cc3c(c2OC)OCO3)CCN1C` (stereo unspecified) [S,R-Noscapine], the LC retention time was 10 min.

Consider `Cc1cc2nc3cc(C)c(N)cc3[n+](-c3ccccc3)c2cc1N` [Safranin], for which the LC retention time stood at 10.9 min.

On to `CC1NCCc2cc(O)c(O)cc21` (stereo unspecified) [Salsolinol], for which the LC retention time is 1.08 min.

In the case of `COc1cc(C=CC(=O)OCC[N+](C)(C)C)cc(OC)c1O` [Sinapine], the LC retention time came out at 6.46 min.

For the compound `Oc1ccc(CC2NCCc3cc(O)c(O)cc32)cc1O` (stereo unspecified) [Tetrahydropapaveroline], the LC retention time came to 1.14 min.

On to `NC(Cc1c[nH]c2ccccc12)C(=O)O` (stereo unspecified) [Tryptophan], for which the LC retention time was found to be 4.07 min.

In the case of `NCCc1ccc(O)cc1` [Tyramine], the LC retention time was found to be 8.45 min.

On to `CC1OC(OC2C(c3c(O)cc(O)c4c(=O)cc(-c5ccc(O)cc5)oc34)OC(CO)C(O)C2O)C(O)C(O)C1O` (stereo unspecified) [Vitexin-2''-O-rhamnoside], for which the LC retention time was found to be 9.58 min.

As for `COc1cc(O)c(CC=C(C)C)c(O)c1C(=O)C=Cc1ccc(O)cc1` [Xanthohumol], the LC retention time came out at 18.5 min.

Consider `COc1ccccc1C(=O)O` [o-Anisic acid], for which the LC retention time worked out at 10.1 min.

The record behind these values is the RepoRT retention time repository (doi:10.1021/ac101825k).
